Source: patent US8592421B2, “Cyclic bioisosters of purine system derivatives and a pharmaceutical composition based thereon” (priority 2003, dated 2013)

Experiments:
[1] = Chronic toxicity of suppositories: indexes of peripheral blood; format: in vivo, rats; design: Thrombocytes: unit not given here
[2] = Chronic toxicity of suppositories: biochemical indexes of blood serum; format: in vivo, rats;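 note: inbred rats dosed rectally with softened suppositories, controls given matching volumes of sterile medical liquid paraffin, serum sampled one month into a two-month dosing course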
Procedure: The experiments were conducted on inbred rats.
Two doses of preparations used in the experiments: 50 mg/kg and 500 mg/kg. Before the administration, the suppositories were softened by heating in a glass water bath at a temperature of 38-39° C., the soft mass was collected in tuberculin syringe in a volume of 1 ml, a needle with oliva was attached to the syringe, and the preparatory mass was introduced into the rectum of the animal for a depth of 1.5-2.0 cm. The animals of the control group were administered with sterile medical liquid paraffin in a volume corresponding to the volume of the investigated suppository. A complete course of administration of drugs to the animals was two months. A complex of laboratory diagnostic investigations was carried out one month after the beginning of the administration of the preparation to the animal—in a middle of the course (8 animals), two months after ending the course (8 animals) and three months after ending the recovery period of one month (8 animals). The mass of the body of the rats in the first month of administration of the preparation was determined weekly, and then once in two weeks. On the basis of the dynamics of an index of the mass of the animal body, the volume of preparation being administered was corrected taking into account the test dose.

[3] = male rats, suppositories rectally, 50 mg/kg, 1 month/2 months (one value given), control 0
[4] = male rats, suppositories rectally, 500 mg/kg, 1 month/2 months (one value given), control 0

## O=c1[nH][nH]c(=O)c2c(Br)ncnc12.[K] [Compound 37, potassium salt of 4-bromine-pyrimido[4,5-D]-6H-pyridazine-5,8-dione]
[1]; [3]
  Basophiles: 0%
  Juveniles: 0%
[1]; male rats, suppositories rectally, 50 mg/kg, 1 month, control 0.8 ± 0.4
  Stab neutrophil: 1.3 ± 0.5%
[1]; male rats, suppositories rectally, 50 mg/kg, 1 month, control 2.2 ± 0.4
  REE: 1.8 ± 0.3 mm/h
[1]; male rats, suppositories rectally, 50 mg/kg, 1 month, control 2.8%0.3
  Reticulocytes: 2.6 ± 0.1%
[1]; male rats, suppositories rectally, 50 mg/kg, 1 month, control 4.0 + 0.3
  Eosinophiles: 3.8 ± 0.8%
[1]; male rats, suppositories rectally, 50 mg/kg, 1 month, control 5.6 ± 0.1
  Erythrocytes: 5.6 ± 0.2 mln/mm^3
[1]; male rats, suppositories rectally, 50 mg/kg, 1 month, control 10.5 ± 0.2
  Hemoglobin: 10.5 ± 0.1 mmol/L
[1]; male rats, suppositories rectally, 50 mg/kg, 1 month, control 17.4 ± 1.3
  Leukocyte: 14.9 ± 1.5 thousand/mm^3
[1]; male rats, suppositories rectally, 50 mg/kg, 1 month, control 45.9 ± 1.7
  Haematocrite: 47.8 ± 1.4%
[1]; male rats, suppositories rectally, 50 mg/kg, 1 month, control 81.4 ± 1.7
  Average volume of erythrocytes: 83.9 ± 1.7 Mkm^3
[1]; male rats, suppositories rectally, 50 mg/kg, 1 month, control 152 ± 10.2
  Coagulation, time: 151 ± 13 s
[1]; male rats, suppositories rectally, 50 mg/kg, 1 month, control 707 ± 23
  Thrombocytes: 675 ± 22
[1]; male rats, suppositories rectally, 50 mg/kg, 2 months, control 1.4 ± 0.2
  REE: 1.6 ± 0.3 mm/h
[1]; male rats, suppositories rectally, 50 mg/kg, 2 months, control 2.4 ± 0.4
  Stab neutrophil: 1.9 ± 0.4%
[1]; male rats, suppositories rectally, 50 mg/kg, 2 months, control 2.9 ± 0.2
  Reticulocytes: 3.1 ± 0.1%
[1]; male rats, suppositories rectally, 50 mg/kg, 2 months, control 4.4 + 1.2
  Eosinophiles: 4.2 ± 0.3%
[1]; male rats, suppositories rectally, 50 mg/kg, 2 months, control 6.1 ± 0.1
  Erythrocytes: 6.2 ± 0.1 mln/mm^3
[1]; male rats, suppositories rectally, 50 mg/kg, 2 months, control 11.4 ± 0.2
  Hemoglobin: 11.0 ± 0.1 mmol/L
[1]; male rats, suppositories rectally, 50 mg/kg, 2 months, control 19.1 ± 1.9
  Leukocyte: 16.7 ± 1.2 thousand/mm^3
[1]; male rats, suppositories rectally, 50 mg/kg, 2 months, control 45.9 ± 1.8
  Haematocrite: 47.5 ± 1.2%
[1]; male rats, suppositories rectally, 50 mg/kg, 2 months, control 74.6 + 1.9
  Average volume of erythrocytes: 78.5 ± 1.4 Mkm^3
[1]; male rats, suppositories rectally, 50 mg/kg, 2 months, control 316 ± 8
  Coagulation, time: 319 ± 12 s
[1]; male rats, suppositories rectally, 50 mg/kg, 2 months, control 593 ± 14
  Thrombocytes: 609 ± 18
[1]; [4]
  Basophiles: 0%
  Juveniles: 0%
[1]; male rats, suppositories rectally, 500 mg/kg, 1 month, control 0.8 ± 0.4
  Stab neutrophil: 0.9 ± 0.4%
[1]; male rats, suppositories rectally, 500 mg/kg, 1 month, control 2.2 ± 0.4
  REE: 2.2 ± 0.3 mm/h
[1]; male rats, suppositories rectally, 500 mg/kg, 1 month, control 2.8%0.3
  Reticulocytes: 3.0 ± 0.2%
[1]; male rats, suppositories rectally, 500 mg/kg, 1 month, control 4.0 + 0.3
  Eosinophiles: 3.5 ± 1.0%
[1]; male rats, suppositories rectally, 500 mg/kg, 1 month, control 5.6 ± 0.1
  Erythrocytes: 5.7 ± 0.1 mln/mm^3
[1]; male rats, suppositories rectally, 500 mg/kg, 1 month, control 10.5 ± 0.2
  Hemoglobin: 10.6 ± 0.1 mmol/L
[1]; male rats, suppositories rectally, 500 mg/kg, 1 month, control 17.4 ± 1.3
  Leukocyte: 17.1 ± 0.9 thousand/mm^3
[1]; male rats, suppositories rectally, 500 mg/kg, 1 month, control 45.9 ± 1.7
  Haematocrite: 47.9 ± 1.8%
[1]; male rats, suppositories rectally, 500 mg/kg, 1 month, control 81.4 ± 1.7
  Average volume of erythrocytes: 82.3 ± 1.5 Mkm^3
[1]; male rats, suppositories rectally, 500 mg/kg, 1 month, control 152 ± 10.2
  Coagulation, time: 157 ± 14 s
[1]; male rats, suppositories rectally, 500 mg/kg, 2 months, control 1.4 ± 0.2
  REE: 2.0 ± 0.1 mm/h
[1]; male rats, suppositories rectally, 500 mg/kg, 2 months, control 2.4 ± 0.4
  Stab neutrophil: 1.1 ± 0.6%
[1]; male rats, suppositories rectally, 500 mg/kg, 2 months, control 2.9 ± 0.2
  Reticulocytes: 3.4 ± 0.2%
[1]; male rats, suppositories rectally, 500 mg/kg, 2 months, control 4.4 + 1.2
  Eosinophiles: 4.1 ± 1.3%
[1]; male rats, suppositories rectally, 500 mg/kg, 2 months, control 6.1 ± 0.1
  Erythrocytes: 6.5 ± 0.2 mln/mm^3
[1]; male rats, suppositories rectally, 500 mg/kg, 2 months, control 11.4 ± 0.2
  Hemoglobin: 12.1 ± 0.4 mmol/L
[1]; male rats, suppositories rectally, 500 mg/kg, 2 months, control 19.1 ± 1.9
  Leukocyte: 18.7 ± 1.7 thousand/mm^3
[1]; male rats, suppositories rectally, 500 mg/kg, 2 months, control 45.9 ± 1.8
  Haematocrite: 52.5 ± 1.7%
[1]; male rats, suppositories rectally, 500 mg/kg, 2 months, control 74.6 + 1.9
  Average volume of erythrocytes: 80.1 ± 1.0 Mkm^3
[1]; male rats, suppositories rectally, 500 mg/kg, 2 months, control 593 ± 14
  Thrombocytes: 639 ± 34
[2]; male rats, suppositories, 50 mg/kg, 1 month, control 3.02 ± 0.08
  Cholesterol in blood serum: 2.48 ± 0.62 mmol/L
[2]; male rats, suppositories, 50 mg/kg, 1 month, control 8.44 ± 0.60
  Urea in blood serum: 9.36 ± 0.62 Mkmol/l
[2]; male rats, suppositories, 50 mg/kg, 1 month, control 9.76 ± 0.15
  Glucose in blood serum: 9.9 ± 0.51 mM
[2]; male rats, suppositories, 50 mg/kg, 1 month, control 11.33 ± 1.96
  ALT in blood serum: 8.98 ± 2.43 unit/l
[2]; male rats, suppositories, 50 mg/kg, 1 month, control 19.13 ± 1.02
  AST in blood serum: 19.97 ± 2.78 unit/1
[2]; male rats, suppositories, 50 mg/kg, 1 month, control 35.93 ± 2.19
  Bilirubin in blood serum: 42.17 ± 3.28 mmol/L
[2]; male rats, suppositories, 50 mg/kg, 1 month, control 40.23 ± 2.84
  Creatinine in blood serum: 46.84 ± 2.92 mkmol/l
[2]; male rats, suppositories, 50 mg/kg, 1 month, control 40.74 ± 1.57
  Alkalinous phosphatase in blood serum: 41.86 ± 5.26 unit/l
[2]; male rats, suppositories, 50 mg/kg, 1 month, control 94.89 ± 6.67
  Total protein in blood serum: 89.44 ± 7.22 g/L
[2]; male rats, suppositories, 500 mg/kg, 1 month, control 3.02 ± 0.08
  Cholesterol in blood serum: 2.64 ± 0.46 mmol/L
[2]; male rats, suppositories, 500 mg/kg, 1 month, control 8.44 ± 0.60
  Urea in blood serum: 10.57 ± 0.56 Mkmol/l
[2]; male rats, suppositories, 500 mg/kg, 1 month, control 9.76 ± 0.15
  Glucose in blood serum: 10.9 ± 0.84 mM
[2]; male rats, suppositories, 500 mg/kg, 1 month, control 11.33 ± 1.96
  ALT in blood serum: 9.56 ± 1.34 unit/l
[2]; male rats, suppositories, 500 mg/kg, 1 month, control 19.13 ± 1.02
  AST in blood serum: 18.21 ± 1.87 unit/1
[2]; male rats, suppositories, 500 mg/kg, 1 month, control 35.93 ± 2.19
  Bilirubin in blood serum: 41.45 ± 7.18 mmol/L
[2]; male rats, suppositories, 500 mg/kg, 1 month, control 40.23 ± 2.84
  Creatinine in blood serum: 47.13 ± 9.82 mkmol/l
[2]; male rats, suppositories, 500 mg/kg, 1 month, control 40.74 ± 1.57
  Alkalinous phosphatase in blood serum: 42.18 ± 2.34 unit/l
[2]; male rats, suppositories, 500 mg/kg, 1 month, control 94.89 ± 6.67
  Total protein in blood serum: 70.88 ± 7.24 g/L

## Nc1ccnc2c(=O)n([C@@H]3O[C@H](CO)[C@@H](O)[C@H]3O)[nH]c(=O)c12 [Compound 2, 4-amino-7-(β-D-ribofuranosile)pyrido[2,3-d]-6H-pyridazine-5,8-dione]
[1]; rat, in vivo, 50 mg/kg
  Average volume of erythrocytes: 83.4 ± 1.4 Mkm^3
  Basophiles: 0%
  Juveniles: 0%
  Reticulocytes: 2.8 ± 0.2/2.8 ± 0.2%
[1]; rat, in vivo, 500 mg/kg
  Average volume of erythrocytes: 85.2 ± 1.2 Mkm^3
  Basophiles: 0%
  Juveniles: 0%
[2]; rat, in vivo, 50 mg/kg
  ALT in blood serum: 10.84 ± 2.02 unit/l
  AST in blood serum: 20.41 ± 3.06 unit/1
  Alkalinous phosphatase in blood serum: 42.12 ± 4.23 unit/l
  Bilirubin in blood serum: 44.38 ± 4.12 mmol/L
  Cholesterol in blood serum: 2.77 ± 0.71 mmol/L
  Creatinine in blood serum: 47.38 ± 3.26 mkmol/l
  Glucose in blood serum: 9.85 ± 0.37 mM
  Total protein in blood serum: 87.34 ± 5.56 g/L
  Urea in blood serum: 11.02 ± 0.73 Mkmol/l
[2]; rat, in vivo, 500 mg/kg
  ALT in blood serum: 11.23 ± 1.70 unit/l
  AST in blood serum: 20.13 ± 2.95 unit/1
  Alkalinous phosphatase in blood serum: 43.4 ± 2.12 unit/l
  Bilirubin in blood serum: 42.56 ± 7.56 mmol/L
  Cholesterol in blood serum: 2.96 ± 0.52 mmol/L
  Creatinine in blood serum: 49.87 ± 8.12 mkmol/l
  Glucose in blood serum: 10.2 ± 0.74 mM
  Total protein in blood serum: 70.84 ± 7.47 g/L
  Urea in blood serum: 11.30 ± 0.80 Mkmol/l
